Measurements: ChEMBL document CHEMBL4346735, “Discovery and pharmacological evaluation of indole derivatives as potent and selective RORγt inverse agonist for multiple autoimmune conditions” (Bioorg Med Chem Lett, 2019)
≈ marks a conversion by molar mass, not a printed value.

Target: T1, Cytochrome P450 3A4 (Homo sapiens, UniProt P08684)
Experiment: Inhibition of CYP3A4 in human liver microsomes using midazolam as substrate preincubated for 5 mins followed by NADPH addition measured after 10 mins by LC-MS/MS analysis
Conditions: not given

T1 sequence (P08684 whole entry): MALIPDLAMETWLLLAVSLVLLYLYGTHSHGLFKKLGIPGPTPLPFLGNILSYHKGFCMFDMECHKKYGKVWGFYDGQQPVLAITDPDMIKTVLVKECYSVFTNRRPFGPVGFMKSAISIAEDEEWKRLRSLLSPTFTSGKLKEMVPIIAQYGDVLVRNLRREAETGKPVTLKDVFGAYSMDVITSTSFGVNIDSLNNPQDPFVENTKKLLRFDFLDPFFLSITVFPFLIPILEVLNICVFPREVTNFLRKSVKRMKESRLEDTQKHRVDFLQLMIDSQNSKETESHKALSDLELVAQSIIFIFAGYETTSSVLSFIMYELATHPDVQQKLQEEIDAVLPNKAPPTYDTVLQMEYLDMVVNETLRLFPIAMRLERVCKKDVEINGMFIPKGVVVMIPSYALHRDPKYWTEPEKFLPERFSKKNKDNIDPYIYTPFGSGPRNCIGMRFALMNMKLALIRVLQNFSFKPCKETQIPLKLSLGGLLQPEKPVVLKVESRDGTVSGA

Question: Which IC50 does the source give for `O=C(O)c1ccc(-n2cc(C(=O)c3c(Cl)cccc3Cl)c3ccccc32)cc1` here?
Answer: > 100 µM

Question: Which IC50 does the source give for `O=C(O)c1ccc(-n2cc(C(=O)c3c(Cl)cccc3Cl)c3c(F)cccc32)cc1` here?
Answer: > 50 µM

Tested on: not listed separately
Experiment: Metabolic stability in mouse liver microsomes assessed as parent compound remaining at 1 uM preincubated for 5 mins followed by NADPH addition after 30 mins by LC-MS/MS analysis
Assay type: ADME, Microsome
Conditions: read-out: Stability

Question: With `O=C(O)c1ccc(-n2cc(C(=O)c3c(Cl)cccc3Cl)c3ccccc32)cc1` as the compound, how does the remaining at 0.5 h, 1 µM read?
Answer: 99%

Question: Which remaining at 0.5 h, 1 µM does the source give for `O=C(O)c1ccc(-n2cc(C(=O)c3c(Cl)cccc3Cl)c3c(F)cccc32)cc1` here?
Answer: 100%

Tested on: not listed separately
Experiment: Solubility of the compound at pH 2.1
Conditions: buffer

Question: Which solubility does the source give for `O=C(O)c1ccc(-n2cc(C(=O)c3c(Cl)cccc3Cl)c3ccccc32)cc1` here?
Answer: < 1 µM

Question: Which solubility does the source give for `O=C(O)c1ccc(-n2cc(C(=O)c3c(Cl)cccc3Cl)c3c(F)cccc32)cc1` here?
Answer: < 1 µM

Tested on: not listed separately
Experiment: Metabolic stability in rat liver microsomes assessed as parent compound remaining at 1 uM preincubated for 5 mins followed by NADPH addition after 30 mins by LC-MS/MS analysis
Assay type: ADME, Microsome
Conditions: read-out: Stability

Question: Which remaining at 0.5 h, 1 µM does the source give for `O=C(O)c1ccc(-n2cc(C(=O)c3c(Cl)cccc3Cl)c3ccccc32)cc1` here?
Answer: 76%

Question: For `O=C(O)c1ccc(-n2cc(C(=O)c3c(Cl)cccc3Cl)c3c(F)cccc32)cc1`, which remaining at 0.5 h, 1 µM is on record?
Answer: 78%

Target: Cytochrome P450 2C9 (Homo sapiens, UniProt P11712)
Experiment: Inhibition of CYP2C9 in human liver microsomes using diclofenac as substrate preincubated for 5 mins followed by NADPH addition measured after 10 mins by LC-MS/MS analysis
Conditions: not given

Chain of Cytochrome P450 2C9 (P11712 whole entry): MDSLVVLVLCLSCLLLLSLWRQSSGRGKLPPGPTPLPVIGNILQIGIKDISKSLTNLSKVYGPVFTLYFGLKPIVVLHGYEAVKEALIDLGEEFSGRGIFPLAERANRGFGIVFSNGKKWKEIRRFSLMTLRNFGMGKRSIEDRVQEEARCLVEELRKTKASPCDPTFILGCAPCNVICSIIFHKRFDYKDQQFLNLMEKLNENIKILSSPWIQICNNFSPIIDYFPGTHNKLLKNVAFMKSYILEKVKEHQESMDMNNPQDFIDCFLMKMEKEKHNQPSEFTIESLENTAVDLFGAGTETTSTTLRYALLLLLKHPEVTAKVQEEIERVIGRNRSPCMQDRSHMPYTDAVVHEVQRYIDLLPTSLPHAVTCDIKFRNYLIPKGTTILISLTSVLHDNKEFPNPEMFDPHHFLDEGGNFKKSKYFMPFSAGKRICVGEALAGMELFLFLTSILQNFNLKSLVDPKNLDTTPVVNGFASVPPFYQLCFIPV

Question: Which IC50 does the source give for `O=C(O)c1ccc(-n2cc(C(=O)c3c(Cl)cccc3Cl)c3ccccc32)cc1` here?
Answer: 3.8 µM

Question: Which IC50 does the source give for `O=C(O)c1ccc(-n2cc(C(=O)c3c(Cl)cccc3Cl)c3c(F)cccc32)cc1` here?
Answer: > 50 µM

Tested on: not listed separately
Experiment: Drug metabolism in rat liver microsomes assessed as oxidation metabolic rate at 1 uM preincubated for 5 mins followed by NADPH addition after 30 mins by LC-MS/MS analysis
Assay type: ADME, Microsome
Conditions: 0.5 h

Question: For `O=C(O)c1ccc(-n2cc(C(=O)c3c(Cl)cccc3Cl)c3ccccc32)cc1`, which Drug metabolism is on record?
Answer: 0.08 nmol/min/mg

Target: T2, Nuclear receptor ROR-gamma (Homo sapiens, UniProt P51449)
T2 sequence (P51449 whole entry): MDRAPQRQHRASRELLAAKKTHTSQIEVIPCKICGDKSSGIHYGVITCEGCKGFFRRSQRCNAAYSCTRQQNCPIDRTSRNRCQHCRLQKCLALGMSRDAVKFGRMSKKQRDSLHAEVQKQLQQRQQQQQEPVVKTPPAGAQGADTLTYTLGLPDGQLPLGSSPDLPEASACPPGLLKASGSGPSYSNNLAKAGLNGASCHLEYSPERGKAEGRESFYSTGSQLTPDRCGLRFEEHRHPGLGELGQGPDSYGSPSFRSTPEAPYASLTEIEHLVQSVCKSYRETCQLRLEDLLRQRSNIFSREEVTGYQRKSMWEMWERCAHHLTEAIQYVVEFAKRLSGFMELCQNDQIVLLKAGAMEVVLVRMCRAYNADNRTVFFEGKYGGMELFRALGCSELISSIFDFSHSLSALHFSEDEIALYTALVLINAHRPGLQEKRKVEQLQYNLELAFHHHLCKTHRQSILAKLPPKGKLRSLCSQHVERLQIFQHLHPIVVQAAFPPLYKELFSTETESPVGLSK
Experiment: Transactivation of recombinant GAL4-DBD fused RORgammat LBD (unknown origin) expressed in HEK293T cells incubated for 18 to 24 hrs by dual-Glo luciferase assay
Assay type: cell-based
Conditions: not given

Question: For `O=C(O)c1ccc(-n2cc(C(=O)c3c(Cl)cccc3Cl)c3ccccc32)cc1`, which IC50 is on record?
Answer: 28 nM

Question: For `O=C(O)c1ccc(-n2cc(C(=O)c3c(Cl)cccc3Cl)c3c(F)cccc32)cc1`, which IC50 is on record?
Answer: 76 nM

Target: Cytochrome P450 2C19 (Homo sapiens, UniProt P33261)
Experiment: Inhibition of CYP2C19 in human liver microsomes using (S)-mephenytoin as substrate preincubated for 5 mins followed by NADPH addition measured after 40 mins by LC-MS/MS analysis
Conditions: not given

Chain of Cytochrome P450 2C19 (P33261 whole entry): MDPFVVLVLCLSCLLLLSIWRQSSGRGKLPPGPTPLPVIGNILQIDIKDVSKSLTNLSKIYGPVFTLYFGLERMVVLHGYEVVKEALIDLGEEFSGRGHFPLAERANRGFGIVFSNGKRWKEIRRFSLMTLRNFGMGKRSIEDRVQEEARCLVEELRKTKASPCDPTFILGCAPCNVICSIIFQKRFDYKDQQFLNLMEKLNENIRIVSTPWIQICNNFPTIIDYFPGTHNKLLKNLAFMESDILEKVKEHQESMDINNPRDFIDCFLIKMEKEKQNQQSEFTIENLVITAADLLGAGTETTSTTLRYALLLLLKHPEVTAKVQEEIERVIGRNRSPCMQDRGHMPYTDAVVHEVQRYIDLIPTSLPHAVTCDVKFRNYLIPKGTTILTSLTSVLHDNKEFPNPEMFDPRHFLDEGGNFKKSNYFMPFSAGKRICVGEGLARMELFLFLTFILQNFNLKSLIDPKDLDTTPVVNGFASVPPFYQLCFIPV

Question: With `O=C(O)c1ccc(-n2cc(C(=O)c3c(Cl)cccc3Cl)c3ccccc32)cc1` as the compound, how does the IC50 read?
Answer: 67.6 µM

Question: Which IC50 does the source give for `O=C(O)c1ccc(-n2cc(C(=O)c3c(Cl)cccc3Cl)c3c(F)cccc32)cc1` here?
Answer: > 50 µM

Tested on: not listed separately
Experiment: Oral bioavailability in Balb/c mouse at 10 mg/kg administered via gavage by LC-MS/MS analysis
Assay type: ADME, organism-based
Conditions: in vivo

Question: Which bioavailability does the source give for `O=C(O)c1ccc(-n2cc(C(=O)c3c(Cl)cccc3Cl)c3ccccc32)cc1` here?
Answer: 53%

Tested on: not listed separately
Experiment: Drug metabolism in mouse liver microsomes assessed as oxidation metabolic rate at 1 uM preincubated for 5 mins followed by NADPH addition after 30 mins by LC-MS/MS analysis
Assay type: ADME, Microsome
Conditions: 0.5 h

Question: Which Drug metabolism does the source give for `O=C(O)c1ccc(-n2cc(C(=O)c3c(Cl)cccc3Cl)c3ccccc32)cc1` here?
Answer: < 0.04 nmol/min/mg

Tested on: not listed separately
Experiment: Solubility of the compound at pH 4
Conditions: buffer

Question: With `O=C(O)c1ccc(-n2cc(C(=O)c3c(Cl)cccc3Cl)c3ccccc32)cc1` as the compound, how does the solubility read?
Answer: < 1 µM

Question: With `O=C(O)c1ccc(-n2cc(C(=O)c3c(Cl)cccc3Cl)c3c(F)cccc32)cc1` as the compound, how does the solubility read?
Answer: < 1 µM

Target: T3, Nuclear receptor ROR-gamma (Mus musculus, UniProt P51450)
T3 sequence (P51450 whole entry): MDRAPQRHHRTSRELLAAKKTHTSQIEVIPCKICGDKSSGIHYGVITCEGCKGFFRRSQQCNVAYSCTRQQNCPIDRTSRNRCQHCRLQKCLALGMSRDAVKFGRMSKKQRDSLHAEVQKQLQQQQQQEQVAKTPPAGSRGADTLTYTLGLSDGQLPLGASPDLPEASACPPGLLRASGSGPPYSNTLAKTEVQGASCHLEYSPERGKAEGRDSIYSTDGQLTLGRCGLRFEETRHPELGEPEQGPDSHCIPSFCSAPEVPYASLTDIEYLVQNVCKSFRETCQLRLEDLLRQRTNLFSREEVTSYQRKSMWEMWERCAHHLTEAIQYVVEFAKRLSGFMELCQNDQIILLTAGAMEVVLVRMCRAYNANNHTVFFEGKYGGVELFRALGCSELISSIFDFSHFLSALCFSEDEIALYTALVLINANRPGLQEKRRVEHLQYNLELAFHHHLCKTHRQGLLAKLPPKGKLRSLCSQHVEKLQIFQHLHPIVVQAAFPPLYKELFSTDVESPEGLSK
Experiment: Inverse agonist activity at RORgammat in mouse splenocytes derived naive T cells assessed as suppression of T cell differentiation to Th17 cells by measuring IL-17 secretion in presence of […]/anti-IFNgamma/TGFbeta/IL-6 for 6 days by ELISA
Assay type: cell-based
Conditions: not given

Question: With `O=C(O)c1ccc(-n2cc(C(=O)c3c(Cl)cccc3Cl)c3ccccc32)cc1` as the compound, how does the IC50 read?
Answer: 58 nM

Tested on: not listed separately
Experiment: Clearance in Balb/c mouse at 3 mg/kg, iv administered as single dose by LC-MS/MS analysis
Assay type: ADME, organism-based
Conditions: in vivo

Question: With `O=C(O)c1ccc(-n2cc(C(=O)c3c(Cl)cccc3Cl)c3ccccc32)cc1` as the compound, how does the clearance read?
Answer: 17 mL/min/kg

Target: T2, Nuclear receptor ROR-gamma
Experiment: Inverse agonist activity at GST-tagged RORgammat LBD (unknown origin) using fluorescein-D22 co-activator peptide as substrate incubated for 1 hr by TR-FRET assay
Conditions: not given

Question: For `O=C(O)c1ccc(-n2cc(C(=O)c3c(Cl)cccc3Cl)c3ccccc32)cc1`, which IC50 is on record?
Answer: 1.6 nM

Question: With `O=C(O)c1ccc(-n2cc(C(=O)c3c(Cl)cccc3Cl)c3c(F)cccc32)cc1` as the compound, how does the IC50 read?
Answer: 25 nM

Tested on: not listed separately
Experiment: AUC (0 to t) in Balb/c mouse at 3 mg/kg, iv administered as single dose by LC-MS/MS analysis
Assay type: ADME, organism-based
Conditions: in vivo

Question: Which AUC(0-t) does the source give for `O=C(O)c1ccc(-n2cc(C(=O)c3c(Cl)cccc3Cl)c3ccccc32)cc1` here?
Answer: 12.5 µM·h

Tested on: not listed separately
Experiment: Drug metabolism in human pooled liver microsomes assessed as oxidation metabolic rate at 1 uM preincubated for 5 mins followed by NADPH addition after 30 mins by LC-MS/MS analysis
Assay type: ADME, Microsome
Conditions: 0.5 h

Question: Which Drug metabolism does the source give for `O=C(O)c1ccc(-n2cc(C(=O)c3c(Cl)cccc3Cl)c3ccccc32)cc1` here?
Answer: < 0.04 nmol/min/mg

Target: T4, Cytochrome P450 1A2 (Homo sapiens, UniProt P05177)
T4 sequence (P05177 whole entry): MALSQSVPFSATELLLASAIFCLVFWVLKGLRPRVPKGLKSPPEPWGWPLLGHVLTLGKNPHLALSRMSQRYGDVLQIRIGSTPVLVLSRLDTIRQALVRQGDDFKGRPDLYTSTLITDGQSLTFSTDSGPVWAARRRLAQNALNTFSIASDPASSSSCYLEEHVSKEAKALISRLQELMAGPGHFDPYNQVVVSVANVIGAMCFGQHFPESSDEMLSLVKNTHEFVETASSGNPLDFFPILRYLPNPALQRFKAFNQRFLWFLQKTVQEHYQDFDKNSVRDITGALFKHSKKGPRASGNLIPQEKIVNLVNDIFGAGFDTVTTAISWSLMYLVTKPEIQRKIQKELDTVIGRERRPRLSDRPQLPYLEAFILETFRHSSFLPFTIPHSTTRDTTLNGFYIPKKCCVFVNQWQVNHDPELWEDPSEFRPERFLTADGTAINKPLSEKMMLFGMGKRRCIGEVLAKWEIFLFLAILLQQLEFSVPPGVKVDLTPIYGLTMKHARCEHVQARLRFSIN
Experiment: Inhibition of CYP1A2 in human liver microsomes using phenacetin as substrate preincubated for 5 mins followed by NADPH addition measured after 10 mins by LC-MS/MS analysis
Conditions: not given

Question: Which IC50 does the source give for `O=C(O)c1ccc(-n2cc(C(=O)c3c(Cl)cccc3Cl)c3ccccc32)cc1` here?
Answer: 29.9 µM

Question: Which IC50 does the source give for `O=C(O)c1ccc(-n2cc(C(=O)c3c(Cl)cccc3Cl)c3c(F)cccc32)cc1` here?
Answer: > 50 µM

Target: T1, Cytochrome P450 3A4
Experiment: Inhibition of CYP3A4 in human liver microsomes using testosterone as substrate preincubated for 5 mins followed by NADPH addition measured after 10 mins by LC-MS/MS analysis
Conditions: not given

Question: For `O=C(O)c1ccc(-n2cc(C(=O)c3c(Cl)cccc3Cl)c3ccccc32)cc1`, which IC50 is on record?
Answer: 15.5 µM

Question: With `O=C(O)c1ccc(-n2cc(C(=O)c3c(Cl)cccc3Cl)c3c(F)cccc32)cc1` as the compound, how does the IC50 read?
Answer: 49 µM

Target: Cytochrome P450 2D6 (Homo sapiens, UniProt P10635)
Experiment: Inhibition of CYP2D6 in human liver microsomes using dextromethorphan as substrate preincubated for 5 mins followed by NADPH addition measured after 10 mins by LC-MS/MS analysis
Conditions: not given

Chain of Cytochrome P450 2D6 (P10635 whole entry): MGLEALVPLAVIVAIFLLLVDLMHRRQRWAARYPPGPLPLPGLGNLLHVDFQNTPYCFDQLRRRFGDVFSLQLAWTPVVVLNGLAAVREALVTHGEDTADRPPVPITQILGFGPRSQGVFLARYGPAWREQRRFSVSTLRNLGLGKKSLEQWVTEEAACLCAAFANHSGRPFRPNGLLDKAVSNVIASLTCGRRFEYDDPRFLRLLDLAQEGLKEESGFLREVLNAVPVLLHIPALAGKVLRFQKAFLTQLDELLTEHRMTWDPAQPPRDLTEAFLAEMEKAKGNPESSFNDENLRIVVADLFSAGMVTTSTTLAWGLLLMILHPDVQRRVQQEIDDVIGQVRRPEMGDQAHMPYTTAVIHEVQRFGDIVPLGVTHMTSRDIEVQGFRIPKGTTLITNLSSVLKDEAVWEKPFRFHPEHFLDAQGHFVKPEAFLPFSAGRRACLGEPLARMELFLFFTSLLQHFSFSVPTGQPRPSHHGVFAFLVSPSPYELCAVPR

Question: With `O=C(O)c1ccc(-n2cc(C(=O)c3c(Cl)cccc3Cl)c3ccccc32)cc1` as the compound, how does the IC50 read?
Answer: > 100 µM

Question: For `O=C(O)c1ccc(-n2cc(C(=O)c3c(Cl)cccc3Cl)c3c(F)cccc32)cc1`, which IC50 is on record?
Answer: > 50 µM

Tested on: not listed separately
Experiment: Metabolic stability in human liver microsomes assessed as parent compound remaining at 1 uM preincubated for 5 mins followed by NADPH addition after 30 mins by LC-MS/MS analysis
Assay type: ADME, Microsome
Conditions: read-out: Stability

Question: With `O=C(O)c1ccc(-n2cc(C(=O)c3c(Cl)cccc3Cl)c3ccccc32)cc1` as the compound, how does the remaining at 0.5 h, 1 µM read?
Answer: 99%

Question: With `O=C(O)c1ccc(-n2cc(C(=O)c3c(Cl)cccc3Cl)c3c(F)cccc32)cc1` as the compound, how does the remaining at 0.5 h, 1 µM read?
Answer: 100%

Tested on: not listed separately
Experiment: Half life in Balb/c mouse at 3 mg/kg, iv administered as single dose by LC-MS/MS analysis
Assay type: ADME, organism-based
Conditions: in vivo

Question: With `O=C(O)c1ccc(-n2cc(C(=O)c3c(Cl)cccc3Cl)c3ccccc32)cc1` as the compound, how does the half-life read?
Answer: 276 min

Tested on: not listed separately
Experiment: Solubility of the compound at pH 7.4
Conditions: buffer

Question: Which solubility does the source give for `O=C(O)c1ccc(-n2cc(C(=O)c3c(Cl)cccc3Cl)c3ccccc32)cc1` here?
Answer: 19 µM (≈ 7.79 µg/mL)

Question: With `O=C(O)c1ccc(-n2cc(C(=O)c3c(Cl)cccc3Cl)c3c(F)cccc32)cc1` as the compound, how does the solubility read?
Answer: > 2000 µM
